Usually ΔTm stands for the change in melting temperature against a reference sample. The Kd is the concentration at which binding is half-saturated.

ΔTm, KD and Kd data for six molecules are collected here from paper PMC9609330.

Series [1] deals with AT11-L2 (DNA, G4) TGGTGGTGGTTGTTGTTGGTGGTGGTGGT
Nature of the series: CD melting. As to conditions: K+ 100 mM, 10 mM lithium cacodylate pH 7.2, 10 µM DNA, 2.0 eq. ligand (20 µM).

Series [2] has as its system 5′-Cy5-AT11-L2 (DNA, G4) TGGTGGTGGTTGTTGTTGGTGGTGGTGGT
Description: fluorescence titration (Cy5 quenching), Hill fit. As to conditions: K+ 100 mM, 10 mM lithium cacodylate, 1 µM DNA, apparent KD.

Series [3] has the same test system. Nature of the series: fluorescence titration (Cy5 quenching), Michaelis–Menten fit. As to conditions: K+ 100 mM; 10 mM lithium cacodylate; 1 µM DNA; apparent KD.
Series [4] deals with T1, nucleolin RBD1,2 (NCL RBD1,2) (UniProt P19338 307-466). Nature of the series: fluorescence titration; 360A (pre-formed G4/ligand complex); Oligonucleotide annealed in 10 mM lithium cacodylate pH 7.2, 100 mM KCl (95 °C 10 min, then ice 10 min); titration temperature not given in the material. As to conditions: protein: recombinant; label: 5'-Cy5; intramolecular G4, parallel in 100 mM KCl.
T1 sequence (P19338 307-466): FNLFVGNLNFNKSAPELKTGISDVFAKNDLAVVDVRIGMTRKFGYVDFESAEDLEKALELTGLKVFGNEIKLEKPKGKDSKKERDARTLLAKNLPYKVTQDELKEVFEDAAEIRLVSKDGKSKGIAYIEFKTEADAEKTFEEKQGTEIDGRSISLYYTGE

The target of series [5] is T1, nucleolin RBD1,2 (NCL RBD1,2). Description: fluorescence titration; PhenDC3 (pre-formed G4/ligand complex); Oligonucleotide annealed in 10 mM lithium cacodylate pH 7.2, 100 mM KCl (95 °C 10 min, then ice 10 min); titration temperature not given in the material. As to conditions: protein: recombinant; label: 5'-Cy5; intramolecular G4, parallel in 100 mM KCl.
Series [6] shares this target. Description: fluorescence titration; PDS (pre-formed G4/ligand complex); Oligonucleotide annealed in 10 mM lithium cacodylate pH 7.2, 100 mM KCl (95 °C 10 min, then ice 10 min); titration temperature not given in the material. As to conditions: protein: recombinant; label: 5'-Cy5; intramolecular G4, parallel in 100 mM KCl.
The target is the same in series [7]. Nature of the series: fluorescence titration; TMPyP4 (pre-formed complex; TMPyP4 excess disrupts the G4); Oligonucleotide annealed in 10 mM lithium cacodylate pH 7.2, 100 mM KCl (95 °C 10 min, then ice 10 min); titration temperature not given in the material. As to conditions: protein: recombinant; label: 5'-Cy5; intramolecular G4, parallel in 100 mM KCl.
Series [8] shares this target. Nature of the series: fluorescence titration; BRACO-19 (pre-formed G4/ligand complex); Oligonucleotide annealed in 10 mM lithium cacodylate pH 7.2, 100 mM KCl (95 °C 10 min, then ice 10 min); titration temperature not given in the material. As to conditions: protein: recombinant; label: 5'-Cy5; intramolecular G4, parallel in 100 mM KCl.

Take `CN(C)c1ccc(Nc2c3ccc(NC(=O)CCN4CCCC4)cc3nc3cc(NC(=O)CCN4CCCC4)ccc23)cc1`: the ΔTm in series [1] is 22.5 °C. The KD in series [2] (Hill n = 0.9) stood at 5.6 ± 2 µM.
Turning to `C[n+]1cc(NC(=O)c2ccc3ccc4ccc(C(=O)Nc5cc6ccccc6[n+](C)c5)nc4c3n2)cc2ccccc21`, the ΔTm in series [1] amounted to 14.9 °C. In addition, the KD in series [2] (Hill n = 2.2) is 1.4 ± 0.085 µM.
For the molecule `C[n+]1cc(NC(=O)c2cccc(C(=O)Nc3cc4ccccc4[n+](C)c3)n2)cc2ccccc21`, the ΔTm in series [1] was determined as 6.5 °C. Also, in series [2] (Hill n = 0.6), the KD was determined as 31 ± 60 µM.
In the case of `C[n+]1ccc(-c2c3nc(c(-c4cc[n+](C)cc4)c4ccc([nH]4)c(-c4cc[n+](C)cc4)c4nc(c(-c5cc[n+](C)cc5)c5ccc2[nH]5)C=C4)C=C3)cc1`, the thermal shift (ΔTm) in series [1] (unfolds G4 at 3.5 eq.) stood at 22.9 °C. Further, in series [2] (Hill n = 1.2), the KD was found to be 1.3 ± 0.15 µM.
`NCCOc1cc(C(=O)Nc2cc(OCCN)c3ccccc3n2)nc(C(=O)Nc2cc(OCCN)c3ccccc3n2)c1`: the shift in melting temperature (ΔTm) in series [1] is 1.8 °C. Also, in series [3], the KD turned out to be 0.014 ± 0.0049 µM.
Regarding TGGTGGTGGTTGTTGTTGGTGGTGGTGGT (structured_DNA) [5'-Cy5-AT11-L2 G4], the dissociation constant (Kd) in series [4] turned out to be 6.4 µM; in series [5] it was 0.018 µM; in series [6], 0.063 µM; in series [7], 0.0012 µM; in series [8], 0.15 µM.
